Active and inactive are the calls of the source. The rule behind the calls is not given here.
Tests used:
[1] = test system: B16-F10; assay: Antitumor activity against mouse B16F10 cells allografted in Balb/c mouse assessed as tumor growth inhibition at 25 mg/kg, iv administered thrice weekly for 21 days starting on day 10 post tumor implantation relative to control; type: functional; conditions: read-out: TGI
[2] = test system: B16-F10; assay: Cytotoxicity against mouse B16F10 cells assessed as decrease in cell viability after 72 hrs by MTT assay; type: functional, cell-based; conditions: B16-F10, 72 h
[3] = test system: Mus musculus; assay: Toxicity in mouse B16F10 cells allografted Balb/c mouse assessed as effect on body weight at 25 mg/kg, iv administered thrice weekly for 21 days starting on day 10 post tumor implantation (reference value: 30.52 +/- 2.9 g); type: organism-based; conditions: in vivo, 504 h
[4] = test system: B16-F10; assay: Induction of apoptosis in mouse B16F10 cells assessed as nuclear fragmentation at IC50 after 72 hrs by DAPI staining-based fluorescence microscopic method; type: functional, cell-based
[5] = test system: B16-F10; assay: Induction of apoptosis in mouse B16F10 cells assessed as necrotic cells at IC50 after 72 hrs by annexin V-FITC/propidium iodide staining-based flow cytometric method relative to control; type: functional
[6] = test system: B16-F10; assay: Induction of apoptosis in mouse B16F10 cells at IC50 after 72 hrs by annexin V-FITC/propidium iodide staining-based flow cytometric method relative to control; type: functional

Nc1ccn([C@@H]2O[C@H](CO)[C@@H](O)C2(F)F)c(=O)n1 [GEMCITABINE]
inhibition in vivo at 25 mg/kg [1]: 37%
IC50 [2]: 260 nM
Activity [3]: 28.65 g
Activity [4]: Active
Activity [5]: 12 - 14%
Activity [6]: 26%

From ChEMBL document CHEMBL4257490, “Development of a peptide-based bifunctional chelator conjugated to a cytotoxic drug for the treatment of melanotic melanoma” (Medchemcomm, 2018)
